Experimental data: the supplement of paper PMC10949913

Experiments:
Conditions in all cases: 48 h
NCI-H295R [1] = experiment: area under concentration-response curve (viability) (AUC (a.u.)); higher = less active
Procedure, shortened: (§1)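 AC50 and area under the curve values derive from fitted concentration-response curves, restricted to inhibitory or non-responding curve classes. The curves came from three adrenocortical carcinoma cell lines in 1,536-well plates, each receiving 23 nL of every library compound at 11 concentrations. Viability was read by CellTiter-Glo luminescence after 48 h, normalised per plate to vehicle and empty-well controls.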

CU-ACC2 [2] = experiment: as above
Procedure, shortened: as §1

CU-ACC1 [3] = experiment: as above
Procedure, shortened: as §1

NCI-H295R [4] = experiment: AC50 viability; higher = less potent
Procedure, shortened: as §1

CU-ACC2 [5] = experiment: AC50 viability; higher = less potent
Procedure, shortened: as §1

CU-ACC1 [6] = experiment: AC50 viability; higher = less potent
Procedure, shortened: as §1

Structure (SMILES) | area under concentration-response curve (NCI-H295R [1]) | area under concentration-response curve (CU-ACC2 [2]) | area under concentration-response curve (CU-ACC1 [3]) | AC50 viability (NCI-H295R [4]) | AC50 viability (CU-ACC2 [5]) | AC50 viability (CU-ACC1 [6])
C[C@@H]1CC[C@@]2(OC1)O[C@H]3C[C@H]4[C@@H]5C/C=C6/C[C@H](CC[C@]6(C)[C@H]5CC[C@]4(C)[C@H]3[C@@H]2C)O[C@@H]7O[C@H](CO)[C@@H](O[C@@H]8O[C@@H](C)[C@H](O)[C@@H](O)[C@H]8O)[C@H](O)[C@H]7O[C@@H]9O[C@@H](C)[C@H](O)[C@@H](O)[C@H]9O | 386 | 524 | 446 | 1.18 µM | 7.42 µM | 4.68 µM
Cc1ccc(-c2cc(C(F)(F)F)nn2-c2ccc([S+](N)(=O)[O-])cc2)cc1 | 271 | 261 | 268 | 9.34 µM | 10.5 µM | 10.5 µM
CC/1=C/C[C@]23O[C@@]2(C)CC[C@@H]4[C@H](OC(=O)C4=C)[C@@H]13 | 435 | 509 | 447 | 18.6 µM | 16.6 µM | 14.8 µM
Cc1cc(Nc2ncc3c(n2)N(C)C(=O)N(c2cc(NC(=O)c4cccc(C(F)(F)F)c4)ccc2C)C3)n(C)n1 | 512 | 483 | 468 | 7.42 µM | 2.63 µM | 11.8 µM
Cc1ccc(C(=O)Nc2ccc(CN3CCN(C)CC3)c(C(F)(F)F)c2)cc1C#Cc1cnc2cccnn12 | 487 | 524 | 402 | 7.42 µM | 9.34 µM | 7.42 µM
CO[C@H]1CCC(O[C@H]2C[C@H]([C@]3(C)CC[C@]4(C[C@H](O)[C@@H](C)[C@@H]([C@@H](C)/C=C(\C)C(=O)[C@H](C)C[C@H](C)C(=O)[O-])O4)O3)O[C@]3(O[C@@H]([C@H]4O[C@@](O)(CO)[C@H](C)C[C@@H]4C)C[C@@H]3C)[C@@H]2C)O[C@@H]1C (some centres not stated) | 440 | 392 | 400 | 2.63 µM | 2.35 µM | 1.48 µM
Cc1ccc([S+](=O)([O-])Nc2cc(C(F)(F)F)ccc2C(=O)Nc2nc(-c3ccccc3)cs2)cc1 | 479 | 499 | 436 | 8.33 µM | 8.33 µM | 10.5 µM
COc1cc2nccc(Oc3ccc(NC(=O)Nc4cc(C)on4)c(Cl)c3)c2cc1OC | 415 | 516 | 422 | 14.8 µM | 29.5 µM | 14.8 µM
C=CC(=O)N1CC/C(=C\c2ccc(F)c([N+](=O)[O-])c2)C(=O)/C(=C/c2ccc(F)c([N+](=O)[O-])c2)C1 | 333 | 342 | 318 | 0.209 µM | 0.148 µM | 0.263 µM
N#C/C(=C1/Nc2ccccc2S1)c1ccnc(OCc2ccc(CN3CCOCC3)cc2)n1 | 429 | 426 | 434 | 11.8 µM | 18.6 µM | 4.68 µM
CO/C1=C/C(C)=C\[C@@H](C)[C@@H](O)[C@@H](C)C/C(C)=C\C=C/[C@H](OC)[C@@H]([C@@H](C)[C@@H](O)[C@H](C)[C@@]2(O)C[C@@H](O)[C@H](C)[C@@H](C(C)C)O2)OC1=O | 443 | 365 | 388 | 2.48 µM | 0.0393 µM | 0.0312 µM
CC[C@@H]1C(=O)N(C)c2cnc(Nc3ccc(C(=O)NC4CCC(N5CCN(CC6CC6)CC5)CC4)cc3OC)nc2N1C(C)C (some centres not stated) | 429 | 450 | 472 | 7.42 µM | 9.34 µM | 7.42 µM
CN1CC[C@H]([C@@H](O)C1)C2=C(O)C=C(O)C3=C2O\C(=C/C3=O)C4=CC=CC=C4Cl | 352 | 392 | 346 | 1.32 µM | 0.417 µM | 0.833 µM
CC(C)N(CCCNC(=O)Nc1ccc(C(C)(C)C)cc1)C[C@H]1O[C@@H](n2cc(Br)c3c(N)ncnc32)[C@H](O)[C@@H]1O | 464 | 506 | 438 | 16.6 µM | 16.6 µM | 16.6 µM
CN[S+](=O)([O-])c1ccc2c(c1)/C(=C/c1[nH]c3c(c1CCCN1CCN(C)CC1)CCCC3)C(=O)N2 | 458 | 504 | 440 | 16.6 µM | 16.6 µM | 23.5 µM
O=C(/C=C/c1ccc2ccc(C(F)(F)F)cc2n1)c1ccncc1 | 402 | 439 | 365 | 3.72 µM | 2.95 µM | 3.72 µM
COc1cc2nc(N3CCCN(C)CC3)nc(NC3CCN(Cc4ccccc4)CC3)c2cc1OC | 494 | 535 | 362 | 9.34 µM | 8.33 µM | 13.2 µM
C=CC(=O)Nc1cccc(Nc2nc(Nc3ccc(Oc4ccnc(C(=O)NC)c4)cc3)ncc2F)c1 | 467 | 596 | 464 | 16.6 µM | 23.5 µM | 29.5 µM
Cc1cc(I)ccc1Nc1c(C(=O)NOCC2CC2)cc(F)c(F)c1F | 490 | 554 | 445 | 8.33 µM | 18.6 µM | 16.6 µM

Structure (SMILES) | area under concentration-response curve (NCI-H295R [1]) | area under concentration-response curve (CU-ACC2 [2]) | area under concentration-response curve (CU-ACC1 [3]) | AC50 viability (NCI-H295R [4]) | AC50 viability (CU-ACC2 [5]) | AC50 viability (CU-ACC1 [6])
CNc1nccc(-c2cccnc2Oc2cc(C(=O)Nc3cccc(C(F)(F)F)c3)ccc2C)n1 | 465 | 494 | 461 | 18.6 µM | 18.6 µM | 14.8 µM
Nc1ccccc1NC(=O)c1ccc(CNC(=O)OCc2cccnc2)cc1 | 440 | 523 | 422 | 3.72 µM | 14.8 µM | 3.72 µM
Cc1nc(Nc2n[nH]c3c2CN(C(=O)N[C@H](CN(C)C)c2ccccc2)C3(C)C)c2sccc2n1 | 462 | 442 | 433 | 9.34 µM | 5.25 µM | 9.34 µM
C=CC(=O)N1CC[C@@H](Oc2nc(Nc3ccc(N4CCC(N5CCN(C)CC5)CC4)cc3)c(C(N)=O)nc2CC)C1 | 529 | 559 | 521 | 8.11 µM | 8.11 µM | 8.11 µM
COCCOc1nc(-c2ccc(Cl)c(Cl)c2)n(-c2ccc(NC(=O)CCl)cc2)n1 | 391 | 415 | 383 | 3.72 µM | 3.72 µM | 5.25 µM
CC[C@@H]1C(=O)N(C)c2cnc(Nc3ccc(C(=O)NC4CCN(C)CC4)cc3OC)nc2N1C1CCCC1 | 404 | 461 | 412 | 16.6 µM | 16.6 µM | 20.9 µM
CC(=O)O/N=C1\C(=O)N(Cc2cc(Cl)ccc2Cl)c2ccc(Cl)cc21 | 504 | 382 | 448 | 13.2 µM | 7.42 µM | 2.09 µM
Cc1cc(F)c(C(=O)Nc2cccc(-c3nncn3C(C)C)n2)cc1-n1cnc(C2CC2)c1 | 419 | 360 | 427 | 18.6 µM | 11.8 µM | 18.6 µM
COc1cc2c(cc1O)CCN[C@]21CS[C@@H]2c3c(OC(C)=O)c(C)c4c(c3[C@H](COC1=O)N1[C@@H]2[C@H]2c3c(cc(C)c(OC)c3O)C[C@@H]([C@@H]1O)N2C)OCO4 | 315 | 344 | 285 | 0.0152 µM | 0.0152 µM | 0.00855 µM
N#Cc1c(C2CCNCC2)cc(-c2c(O)cccc2OCC2CC2)nc1N | 275 | 269 | 291 | 1.05 µM | 0.934 µM | 10.5 µM
COc1cc(N2CCC(N3CCN(C)CC3)CC2)ccc1Nc1ncc(Cl)c(Nc2ccccc2[S+](=O)([O-])C(C)C)n1 | 432 | 479 | 436 | 2.95 µM | 5.25 µM | 11.8 µM
CCN1CCN(C(=O)Cc2ccc(Nc3ncc(F)c(Nc4ccc(C(=O)Nc5ccccc5Cl)cc4)n3)cc2)CC1 | 389 | 490 | 412 | 7.42 µM | 8.33 µM | 9.34 µM
CC1(C)OC/2=C(\[C@H](NCC3=CC=CC=C3)[C@@H]1O)C(=O)C4=CC=CC=C4C2=O | 403 | 368 | 381 | 1.86 µM | 18.6 µM | 2.35 µM
O=C(CCCCCCNC(=O)c1cnc(N(c2ccccc2)c2ccccc2)nc1)NO | 525 | 552 | 364 | 20.9 µM | 11.8 µM | 18.6 µM
N=c1c2c(-c3ccccc3)c(-c3ccccc3)n(Cc3ccccc3)c2ncn1[C@H]1CC[C@H](O)CC1 | 491 | 531 | 341 | 18.6 µM | 18.6 µM | 18.6 µM
Cc1cccc(Nc2nc(N[C@@H]3CCCC[C@@H]3N)ncc2C(N)=O)c1 | 496 | 546 | 476 | 18.6 µM | 26.3 µM | 26.3 µM
COc1ccc([S+](=O)([O-])N(CCO)c2ccccc2CN(C)C/C=C/c2ccc(Cl)cc2)cc1 | 425 | 539 | 436 | 20.9 µM | 23.5 µM | 14.8 µM
ClC1=CC\2=C(NC(=O)\C(=C2N[C@@H]3CN4CCC3CC4)C5=NC6=C([NH]5)C=CC=C6)C=C1 | 404 | 365 | 404 | 0.118 µM | 5.25 µM | 16.6 µM
